Assay results: patent US20170226059A1, “APOE4-TARGETED THERAPUTICS THAT INCREASE SIRT1” (The Regents of the University of California, priority 2014, published 2017)
pEC50: −log10 of the molar value. “Also recorded” adds a separate entry of the source. Read-outs that look alike come from different tables or passages of the source.

Columns and labels:
SirT1 mRNA = SirT1 mRNA levels in A172 cells transfected with ApoE4 (quantitative real-time PCR); type: cell-based, human; conditions: A03 at 2 μM
Procedure: Total RNA from transfected and drug-treated cells is isolated using the High Pure RNA isolation kit (Roche) and 1 μg of RNA is reverse-transcribed. To analyze the mRNA levels of SirT1, real time PCR can be performed on first-strand cDNAs as described (Theendakara et al. (2013) Proc. Natl. Acad. Sci. USA, 10(45): 18303-18308). The real-time PCR can be performed in Light Cycler 480-384-multiwell plates (Roche). Primers for SirT1 were designed using the Roche universal probe library system and the primers were synthesized by Integrated DNA Technology. Real-time PCR can be performed in SYBR Green master mix with the corresponding primer sets. The melting curves of PCR products are monitored to ensure that a single melting curve is obtained. For analysis of the real-time PCR data, δCt values of samples are normalized to values obtained for GAPDH, which is assayed simultaneously. Relative quantification using the DeltaDelta Ct method can be adopted to calculate the relative quantity of SirT1 levels.

sAPPα = sAPPα levels in the presence of ApoE4 (AlphaLISA); type: cell-based; conditions: in the presence of ApoE4 (ApoE4-transfected cells); listed as Alaproclate
Procedure: sAPPα or sAPPβ secreted into the cellular media are determined with sAPPα or sAPPβ AlphaLISA immunoassay kits (PerkinElmer) according to the manufacturer's protocol with some modifications. The standards, blanks, and media are diluted with the buffer provided in the kit and added to the plate. During the first incubation step, the analyte is captured either by an antibody recognizing the α-secretase cleavage site at sAPPα C-terminus (clone 2B3) or the sAPPβ C-terminus, and then by a second biotin-labeled antibody specific to the N-terminal common domain of sAPP. In the second incubation step, the biotinylated anti-analyte antibody is bound to the streptavidin-coated donor beads. At the end of this reaction, the plates are read on an EnSpire Alpha 2390 multilabel plate reader equipped with the AlphaScreen module. The Aβ1-42 or 1-40 are determined from media and/or cells using Life Science's sandwich ELISA kit. The levels of Aβ are quantified from a standard curve and normalized to total cellular protein (Spilman et al. (2014) Brain Res. 1551: 25-44; Theendakara et al. (2013) Proc. Natl. Acad. Sci. USA, 10(45): 18303-18308), Tau and p-tau are determined from cell extracts by a solid phase double antibody sandwich ELISA technology designed for quantitative determination of phospho-tau (Antibodies-Online). APP and p-APP are determined by the DuoSet IC ELISA (R&D Systems) to measure phosphorylated APP in cell lysates. An immobilized capture antibody specific for APP binds both phosphorylated and unphosphorylated APP. After unbound material is washed away, a biotinylated detection antibody is used to detect either APP or phosphor-APP utilizing a standard HRP format. Using these assay procedures we notice a significant increase in p-tau and p-APP levels in ApoE4-transfected cells. It can be determined whether the primary “hits” reverse the ApoE4-mediated APP-Thr phosphorylation and tau-phosphorylation.

[1] = Phase1 human trials, up to 200 mgs bid; cited from earlier work
p-tau = test: p-Tau levels in SHSY5Y; type: cell-based
Procedure: sAPPα or sAPPβ secreted into the cellular media are determined with sAPPα or sAPPβ AlphaLISA immunoassay kits (PerkinElmer) according to the manufacturer's protocol with some modifications. The standards, blanks, and media are diluted with the buffer provided in the kit and added to the plate. During the first incubation step, the analyte is captured either by an antibody recognizing the α-secretase cleavage site at sAPPα C-terminus (clone 2B3) or the sAPPβ C-terminus, and then by a second biotin-labeled antibody specific to the N-terminal common domain of sAPP. In the second incubation step, the biotinylated anti-analyte antibody is bound to the streptavidin-coated donor beads. At the end of this reaction, the plates are read on an EnSpire Alpha 2390 multilabel plate reader equipped with the AlphaScreen module. The Aβ1-42 or 1-40 are determined from media and/or cells using Life Science's sandwich ELISA kit. The levels of Aβ are quantified from a standard curve and normalized to total cellular protein (Spilman et al. (2014) Brain Res. 1551: 25-44; Theendakara et al. (2013) Proc. Natl. Acad. Sci. USA, 10(45): 18303-18308), Tau and p-tau are determined from cell extracts by a solid phase double antibody sandwich ELISA technology designed for quantitative determination of phospho-tau (Antibodies-Online). […]

ADAM10 mRNA = ADAM10 mRNA levels / transcription in A172 cells transfected with ApoE4; type: cell-based, human; conditions: A03 at 2 uM
SirT1 = test: Primary AlphaLISA screening assay: SirT1 levels in N2a cells stably transfected with ApoE4; type: cell-based, mouse; conditions: for SirT1 levels (dose-response): N2A neuroblastoma cells stably transfected with ApoE4
Procedure: We have developed a primary screening assay that is HTS formatable; the assay would be done on N2a cells (mouse neuroblastoma cells) that have been stably transfected with ApoE3 and ApoE4. The cells are treated with drugs and the SirT1 levels are measured using the AlphaLISA assay that we have developed, e.g., as shown in FIG. 11. The illustrated AlphaLISA uses an antibody (Ab, E104, Abcam) that binds the C-terminus of SirT1 and is on the acceptor bead. The N-terminal Ab (D1D7, Abcam) is biotinylated and binds to the donor bead. For the primary assay the Neuro-2a (N2a) cells stably expressing similar levels of hApoE3 or hApoE4 are used. The primary assay can be done in triplicate. The N2a cells have reasonably good endogenous levels of APP thus avoiding the necessity of APP transfection. In general, for the assays N2a cells stably transfected with hApoE3 (E3) or hApoE4 (E4) are plated, e.g., at […] in 384-well plates in […] of growth medium and allowed to attached for 3 h. The E4 cells are treated with compounds overnight, E3 cells are controls. The following day, growth medium is removed and cells are lysed with AlphaLysis buffer complemented with protease and phosphatase inhibitors.
Then, the AlphaLISA assay is run and molecules that can increase or reverse the SirT1 levels in ApoE4 cells are identified. A preliminary estimate, based on the initial screening which yielded two reproducible “hits” from a set of 1000 compounds, which is a 0.2% hit-rate. […] Our initial screening was done on a small library of about 1000 compounds. The assay is translatable to a HTS format.

[2] = Brain penetration after subcutaneous injection in mice; type: in vivo
Procedure: Pharmacokinetic (PK) analysis for CNS exposure studies can consist of a time course design to collect heparinized plasma and brains (Korfmacher et al. (2001) Rapid Commun. Mass. Spectrom. 15(5): 335-340; Mei et al. (2006) AAPS J. 8(3): E493-500; Spilman et al. (2014) Brain Res. 1551: 25-44). Five non-transgenic mice can be used for the PK studies, and 1, 2, 4, 6, and 8 hour time points taken. Following oral, and either sc or ip administration of the molecules at 10 mg/kg, plasma and brain levels of the compounds can be determined by quantitative LC/MS/MS methodology. Plasma samples can be precipitated with acetonitrile:methanol (1:1) cocktail containing an internal standard. The brain samples can be homogenized directly in ethylacetate or extracted from 5M guanidine homogenates with liquid-liquid method. The resulting supernatant can be evaporated to dryness and subjected to the LC/MS/MS analysis. For each compound 3 mice can be used for this analysis. The brain-to-plasma ratios and brain levels can then be calculated to identify the best candidate(s) for further efficacy testing.

[3] = rodents, high doses; cited from earlier work

CC(N)C(=O)OC(C)(C)Cc1ccc(Cl)cc1 (centres unmarked) [Compound A03, 1-(4-chlorophenyl)-2-methylpropan-2-yl 2-aminopropanoate]
mRNA levels of SirT1 (SirT1 mRNA): normalized; also recorded: normalize the mRNA levels for SirT1 | mRNA levels of SirT1 (SirT1 mRNA; listed as Alaproclate): increased | sAPPα levels (sAPPα): increases | adverse events [1]: no observed adverse events | global scores [1]: some improvements in global scores | p-Tau levels (p-tau): decreased | ADAM10 mRNA levels / transcription (ADAM10 mRNA): normalized; also recorded: normalization of ADAM10 transcription | ADAM10 mRNA levels / transcription (ADAM10 mRNA; listed as Alaproclate): increased | EC20 for SirT1 enhancement (SirT1; N2A cells stably transfected with ApoE4): 0.2 µM | pEC50 (SirT1; N2A cells stably transfected with ApoE4, read-out: EC50 for SirT1 enhancement): ~5.70 | SirT1 levels (dose-response) (SirT1): generated a SirT1 dose-response; also recorded: SirT1 levels increasing with dose | SirT1 levels (dose-response) (SirT1; listed as Alaproclate): increases | SirT1 levels (dose-response) (SirT1; listed as alaproclate): increase SirT1 levels in a dose responsive manner | brain penetration / brain permeability [2]: excellent brain penetration | brain penetration / brain permeability ([2]; listed as alaproclate): highly brain permeable | Kp ([2]; mouse, brain and plasma, sc, 10 mg/kg, read-out: brain/plasma (B/P)): ~10 | liver toxicity [3]: observed liver toxicity
